Experimental data: paper PMC5325082 (Molecular Pharmacology, 2017)

Columns and labels:
[1] = target: T1, α9χα10χ (α9 and α10 extracellular domains fused to 5-HT3A) (UniProt P23979+P43144+Q9JLB5, L231I/L232I); test: [3H]-α-BTX radioligand binding, membranes of transfected tsA201 cells; parameters: species or system rat; settings: ACh 1 mM alone vs standard mixture of nonradioactive ligands
T1 construct: the extracellular N-terminal domain of the α9 or α10 subunit; expressed in transfected cells; host or cells: tsA201 cells (HEK293-derived), membrane preparation
T1 sequence (P23979 whole entry, looked up, the tested form may be a part): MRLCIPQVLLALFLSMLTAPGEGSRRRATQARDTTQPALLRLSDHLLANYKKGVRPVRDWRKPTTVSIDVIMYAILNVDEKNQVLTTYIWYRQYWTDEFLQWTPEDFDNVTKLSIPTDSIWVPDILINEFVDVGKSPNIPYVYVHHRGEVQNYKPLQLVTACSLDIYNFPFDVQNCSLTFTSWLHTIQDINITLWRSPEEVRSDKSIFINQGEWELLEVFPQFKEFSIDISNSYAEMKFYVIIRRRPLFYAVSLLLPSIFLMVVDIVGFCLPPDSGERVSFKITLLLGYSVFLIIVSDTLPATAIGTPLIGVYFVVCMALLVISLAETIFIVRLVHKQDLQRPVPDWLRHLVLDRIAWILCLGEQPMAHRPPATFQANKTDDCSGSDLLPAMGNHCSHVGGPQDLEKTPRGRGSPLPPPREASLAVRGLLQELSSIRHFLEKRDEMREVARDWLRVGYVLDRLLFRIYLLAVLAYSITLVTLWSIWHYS
T1 sequence (P43144 whole entry, looked up, stated change not applied, the tested form may be a part): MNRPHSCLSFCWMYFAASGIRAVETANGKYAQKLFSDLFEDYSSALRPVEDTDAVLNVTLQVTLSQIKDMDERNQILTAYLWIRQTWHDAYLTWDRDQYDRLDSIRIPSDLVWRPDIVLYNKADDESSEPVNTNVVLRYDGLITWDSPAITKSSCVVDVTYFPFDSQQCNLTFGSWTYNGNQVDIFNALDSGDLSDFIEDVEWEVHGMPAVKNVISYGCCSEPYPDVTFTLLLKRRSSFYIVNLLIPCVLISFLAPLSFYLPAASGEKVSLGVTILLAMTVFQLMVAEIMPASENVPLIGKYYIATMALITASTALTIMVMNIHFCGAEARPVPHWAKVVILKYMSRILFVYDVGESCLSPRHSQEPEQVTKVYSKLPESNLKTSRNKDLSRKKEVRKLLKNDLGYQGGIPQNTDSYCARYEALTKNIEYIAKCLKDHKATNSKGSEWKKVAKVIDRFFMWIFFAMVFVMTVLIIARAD
T1 sequence (Q9JLB5 whole entry, looked up, stated change not applied, the tested form may be a part): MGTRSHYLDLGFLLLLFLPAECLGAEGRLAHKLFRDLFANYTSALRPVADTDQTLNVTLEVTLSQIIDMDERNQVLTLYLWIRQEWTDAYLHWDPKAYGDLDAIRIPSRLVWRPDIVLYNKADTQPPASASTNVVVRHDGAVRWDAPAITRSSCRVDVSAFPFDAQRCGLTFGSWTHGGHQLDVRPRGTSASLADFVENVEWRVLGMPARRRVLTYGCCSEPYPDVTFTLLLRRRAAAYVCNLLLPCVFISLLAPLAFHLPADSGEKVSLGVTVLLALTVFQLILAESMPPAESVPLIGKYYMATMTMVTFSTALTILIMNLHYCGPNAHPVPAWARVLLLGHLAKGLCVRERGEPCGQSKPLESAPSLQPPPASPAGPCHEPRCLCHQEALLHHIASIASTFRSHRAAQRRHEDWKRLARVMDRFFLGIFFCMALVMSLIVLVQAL
Description: (§1) Chimeric subunit cDNAs containing the extracellular N-terminal domain of the α9 or α10 subunit fused to the transmembrane and intracellular domain of the mouse 5-HT3A subunit have been described previously ([Baker et al., 2004]). The mammalian cell line tsA201 (derived from the human embryonic kidney 293 cell line) was obtained from Dr. William Green (University of Chicago, Chicago). Cells were cultured in Dulbecco’s modified Eagle’s medium (Invitrogen, Paisley, United Kingdom) containing 2 mM L-GlutaMAX (Invitrogen) plus 10% heat-inactivated fetal calf serum (Sigma, Poole, United Kingdom) with penicillin (100 U/ml) and streptomycin (100 µg/ml) and were maintained in a humidified incubator containing 5% CO2 at 37°C. Cells were transiently transfected using Effectene transfection reagent (QIAGEN, Crawley, United Kingdom) according to the manufacturer’s instructions. In all cases, cells were transfected overnight and assayed for expression approximately 40–48 hours after transfection. To ensure that the levels of radioligand binding were not influenced by differences in the amount of subunit cDNA expressed, the amount of each subunit plasmid DNA and also the total amount of plasmid DNA were kept constant when subunits were expressed singly and in combination. This was achieved by the inclusion of empty plasmid expression vector when single subunits were transfected.
(§2) Binding studies with [^3H]-α-bungarotoxin (α-BTX) in cell membrane preparations were performed essentially as described previously ([Lansdell and Millar, 2000]; [Harkness and Millar, 2002]). Membranes (typically, 10–100 µg of protein) were incubated with radioligand (final concentration 20 nM) for 150 minutes at 4°C in a total volume of 300 µl in the presence of protease inhibitors leupeptin (2 µg/ml) and pepstatin (1 µg/ml). Our standard protocol for determining nonspecific binding was the addition of 1 mM carbachol, 1 mM nicotine, and 10 µM methyllycaconitine to triplicate samples. […] In all cases the levels of specific binding were determined by subtracting the level of nonspecific binding from the total binding (both of which were determined in triplicate). The data were determined as means of three independent experiments, each performed in triplicate. Radioligand binding was assayed by filtration onto 0.5% polyethylenimine-presoaked Whatman GF/B filters (Sigma-Aldrich, Dorset, England) followed by rapid washing (typically, five washes, each of 4 ml) with ice-cold 10 mM phosphate buffer using a Brandel cell harvester, and radioactivity was determined by scintillation counting. […] Protein concentrations were determined using bovine serum albumin standards (Bio-Rad, Hercules, CA).

α9χα10χW55T = target: T2, α9χα10χW55T (UniProt P23979+P43144+Q9JLB5, L231I/L232I/W81T); test: as above; parameters: species or system rat; settings: ACh 1 mM alone vs standard mixture of nonradioactive ligands
T2 construct: containing the extracellular N-terminal domain of the α9 or α10 subunit fused to the transmembrane and intracellular domain of the mouse 5-HT3A subunit; mouse 5-HT3A subunit transmembrane and intracellular domain (fusion partner); expressed in transfected cells; host or cells: tsA201 (derived from human embryonic kidney 293), transient transfection; membrane preparations
T2 sequence (P23979 whole entry, looked up, stated change not applied, the tested form may be a part): as the sequence (P23979 whole entry, looked up, the tested form may be a part) above
T2 sequence (P43144 whole entry, looked up, stated change not applied, the tested form may be a part): as the sequence (P43144 whole entry, looked up, stated change not applied, the tested form may be a part) above
T2 sequence (Q9JLB5 whole entry, looked up, stated change not applied, the tested form may be a part): as the sequence (Q9JLB5 whole entry, looked up, stated change not applied, the tested form may be a part) above
Description: as §1, §2

CC(=O)OCC[N+](C)(C)C [ACh, acetylcholine]
Displacement of bound [3H]-α-BTX by ACh [1]: displaced as efficiently with ACh alone as with our standard mixture of nonradioactive competing ligands | Displacement of bound [3H]-α-BTX by ACh (α9χα10χW55T): displaced as efficiently with ACh alone as with our standard mixture of nonradioactive competing ligands
